Assay results: US20080009418A1, “Selective Inhibitors” (Alchemia LTD., priority 2004, published 2008)

Key:
Settings in all cases: compound at 10 μM
[1] = target: T1, Human neuropeptide Y (NPY-Y1) (Homo sapiens, UniProt P25929); experiment: Radioligand binding, human neuropeptide Y NPY-Y1 membranes, FlashPlate, [125I]-PYY
T1 construct: purchased Perkin Elmer Biosignal
T1 sequence (P25929 1-384): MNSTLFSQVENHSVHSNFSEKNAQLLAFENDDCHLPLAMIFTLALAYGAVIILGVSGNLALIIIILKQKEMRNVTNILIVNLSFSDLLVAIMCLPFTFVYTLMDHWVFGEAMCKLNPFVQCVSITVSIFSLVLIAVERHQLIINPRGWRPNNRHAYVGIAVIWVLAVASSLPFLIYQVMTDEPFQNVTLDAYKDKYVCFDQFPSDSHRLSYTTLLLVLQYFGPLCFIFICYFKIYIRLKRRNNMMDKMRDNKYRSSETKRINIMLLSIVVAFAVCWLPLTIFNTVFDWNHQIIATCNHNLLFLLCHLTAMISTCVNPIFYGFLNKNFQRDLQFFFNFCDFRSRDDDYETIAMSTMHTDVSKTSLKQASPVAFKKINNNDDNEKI
Outline: (§1)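 Cloned human receptor membranes were coated onto FlashPlate wells and incubated with radioligand and compound (added from a 0.5 mM DMSO daughter plate) for 1 hour at room temperature in the dark. Scintillation counting gave percent inhibition, with DMSO defining total and reference ligand defining non-specific binding.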

Human δ-opioid (DOP) = target: T2, Human δ-opioid (DOP) (Homo sapiens, UniProt P41143); experiment: Radioligand binding, human δ-opioid (DOP) membranes, FlashPlate, [3H]-Bremazocine
T2 construct: purchased Perkin Elmer Biosignal
Outline: as §1

Human neurokinin (NK1) = target: T3, Human neurokinin (NK1) (Homo sapiens, UniProt P25103); experiment: Radioligand binding, human neurokinin NK1 membranes, filtration, [125I]-Substance P
T3 construct: purchased Perkin Elmer Biosignal
Outline: (§2)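 Membranes from cloned human receptors were incubated with compound and radioligand for 1 hour at room temperature. Bound ligand was collected on 0.3% PEI-soaked filters, washed with cold 50 mM Tris-HCl pH 7.4, and counted by scintillation. Percent inhibition was computed against DMSO totals and reference-ligand nonspecific wells.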

[2] = target: T4, Human melanin-concentrating hormone (MCH1) (Homo sapiens, UniProt Q99705); experiment: Radioligand binding, human melanin-concentrating hormone MCH1 membranes, FlashPlate, [125I]-S36057
T4 construct: purchased Perkin Elmer Biosignal
Outline: as §1

Human Melanocortin (MC4) = target: T5, Human Melanocortin (MC4) (Homo sapiens, UniProt P32245); experiment: Radioligand binding, human melanocortin MC4 membranes, FlashPlate, [125I]-NDP-αMSH
T5 construct: purchased Perkin Elmer Biosignal
Outline: as §1

Human κ-Opioid (KOP) = target: T6, Human κ-Opioid (KOP) (Homo sapiens, UniProt P41145); experiment: Radioligand binding, human κ-opioid (KOP) membranes, filtration, [3H]-Diprenorphine
T6 construct: purchased Perkin Elmer Biosignal
Outline: as §2

Human μ-opioid (MOP) = target: T7, Human μ-opioid (MOP) (Homo sapiens, UniProt P35372); experiment: Radioligand binding, human μ-opioid (MOP) membranes, FlashPlate, [3H]-Naloxone
T7 construct: purchased Perkin Elmer Biosignal
Outline: as §1

Mouse urotensin (mUR2) = target: T8, Mouse urotensin (mUR2) (Mus musculus, UniProt Q8VIH9); experiment: Radioligand binding, mouse urotensin mUR2 membranes, FlashPlate, [125I]-Urotensin II
T8 construct: purchased Perkin Elmer Biosignal
T8 sequence (Q8VIH9 1-385): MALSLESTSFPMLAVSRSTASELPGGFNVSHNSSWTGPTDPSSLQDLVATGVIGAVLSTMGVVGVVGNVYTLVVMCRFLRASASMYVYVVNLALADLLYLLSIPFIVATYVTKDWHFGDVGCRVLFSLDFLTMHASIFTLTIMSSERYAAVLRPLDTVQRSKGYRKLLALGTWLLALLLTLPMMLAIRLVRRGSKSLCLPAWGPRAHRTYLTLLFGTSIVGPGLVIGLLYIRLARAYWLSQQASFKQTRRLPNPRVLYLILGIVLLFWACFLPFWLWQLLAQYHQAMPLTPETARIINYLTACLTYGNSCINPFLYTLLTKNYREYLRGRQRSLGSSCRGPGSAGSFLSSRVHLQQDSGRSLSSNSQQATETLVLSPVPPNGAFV
Outline: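 Cloned mouse urotensin (mUR2) receptor membranes from Perkin Elmer Biosignal were immobilized in FlashPlate microplates using a proprietary coating. Each well got 19.5 μl buffer, then 0.5 μl of DMSO, reference ligand, or compound. Adding 5 μl of [125I]-Urotensin II, diluted to 5× final concentration in binding buffer, started binding. Plates were sealed with TopSeal-A and incubated 1 hour at room temperature in the dark. Wells were counted for 30 seconds each on a TopCount after a 60-second delay, and percentage inhibition was calculated.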

Human Melanocortin (MC3) = target: T9, Human Melanocortin (MC3) (Homo sapiens, UniProt P41968); experiment: Radioligand binding, human melanocortin MC3 membranes, FlashPlate, [125I]-NDP-αMSH
T9 construct: purchased Perkin Elmer Biosignal
Outline: as §1

Human melanocortin (MC5) = target: T10, Human melanocortin (MC5) (Homo sapiens, UniProt P33032); experiment: Radioligand binding, human melanocortin MC5 membranes, FlashPlate, [125I]-NDP-αMSH
T10 construct: purchased Perkin Elmer Biosignal
Outline: as §1

Human opioid (ORL1) = target: T11, Human opioid (ORL1) (Homo sapiens, UniProt P41146); experiment: Radioligand binding, human opioid ORL1 membranes, FlashPlate, [125I]-Nociceptin
T11 construct: purchased Perkin Elmer Biosignal
Outline: as §1

T10 sequence (P33032 whole entry): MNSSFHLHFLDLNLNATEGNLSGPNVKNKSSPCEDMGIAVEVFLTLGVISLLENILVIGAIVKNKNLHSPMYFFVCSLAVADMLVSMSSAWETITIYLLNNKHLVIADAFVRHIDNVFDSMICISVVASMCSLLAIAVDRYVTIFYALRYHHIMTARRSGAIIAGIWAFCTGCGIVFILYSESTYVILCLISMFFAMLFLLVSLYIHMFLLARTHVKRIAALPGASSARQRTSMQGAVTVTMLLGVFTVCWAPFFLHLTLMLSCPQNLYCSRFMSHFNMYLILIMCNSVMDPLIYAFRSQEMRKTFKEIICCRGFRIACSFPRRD
T4 sequence (Q99705 whole entry): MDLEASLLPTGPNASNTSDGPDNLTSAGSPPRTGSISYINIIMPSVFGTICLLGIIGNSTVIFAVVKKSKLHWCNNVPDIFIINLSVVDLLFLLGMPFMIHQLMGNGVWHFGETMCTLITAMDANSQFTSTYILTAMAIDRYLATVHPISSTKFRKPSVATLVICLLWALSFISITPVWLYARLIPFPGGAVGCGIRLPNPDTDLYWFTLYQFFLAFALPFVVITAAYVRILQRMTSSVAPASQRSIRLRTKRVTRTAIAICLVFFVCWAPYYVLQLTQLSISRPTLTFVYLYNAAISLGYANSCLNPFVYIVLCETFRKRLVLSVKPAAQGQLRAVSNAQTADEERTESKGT
T7 sequence (P35372 whole entry): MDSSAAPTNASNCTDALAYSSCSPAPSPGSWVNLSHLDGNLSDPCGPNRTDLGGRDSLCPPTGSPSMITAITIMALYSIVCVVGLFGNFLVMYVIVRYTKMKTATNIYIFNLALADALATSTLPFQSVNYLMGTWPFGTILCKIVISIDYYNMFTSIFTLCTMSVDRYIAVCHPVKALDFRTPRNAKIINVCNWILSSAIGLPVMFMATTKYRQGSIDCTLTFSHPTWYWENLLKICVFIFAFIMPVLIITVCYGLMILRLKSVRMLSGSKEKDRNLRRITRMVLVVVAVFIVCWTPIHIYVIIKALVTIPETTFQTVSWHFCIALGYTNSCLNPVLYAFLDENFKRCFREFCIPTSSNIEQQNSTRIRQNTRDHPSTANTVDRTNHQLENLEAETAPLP
T11 sequence (P41146 whole entry): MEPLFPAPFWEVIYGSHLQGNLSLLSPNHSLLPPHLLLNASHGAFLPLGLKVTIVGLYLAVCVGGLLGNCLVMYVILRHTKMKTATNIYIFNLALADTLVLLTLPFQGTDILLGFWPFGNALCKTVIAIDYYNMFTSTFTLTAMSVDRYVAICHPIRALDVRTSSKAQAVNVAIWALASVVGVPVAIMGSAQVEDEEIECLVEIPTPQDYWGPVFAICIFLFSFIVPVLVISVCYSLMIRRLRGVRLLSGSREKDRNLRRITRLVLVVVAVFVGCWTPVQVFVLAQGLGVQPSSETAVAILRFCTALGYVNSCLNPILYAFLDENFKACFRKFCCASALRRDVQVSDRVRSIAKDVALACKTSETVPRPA
T3 sequence (P25103 whole entry): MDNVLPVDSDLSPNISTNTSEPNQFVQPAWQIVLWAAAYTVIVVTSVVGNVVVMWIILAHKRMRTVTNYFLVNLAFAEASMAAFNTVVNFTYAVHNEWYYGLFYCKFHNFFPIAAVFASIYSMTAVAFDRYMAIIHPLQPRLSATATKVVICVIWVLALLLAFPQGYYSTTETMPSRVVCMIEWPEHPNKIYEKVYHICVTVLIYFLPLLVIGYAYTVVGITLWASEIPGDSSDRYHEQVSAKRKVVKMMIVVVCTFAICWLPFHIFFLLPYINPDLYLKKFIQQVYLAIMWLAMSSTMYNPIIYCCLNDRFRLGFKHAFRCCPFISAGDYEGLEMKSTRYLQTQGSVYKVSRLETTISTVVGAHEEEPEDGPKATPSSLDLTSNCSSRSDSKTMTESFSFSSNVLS
T2 sequence (P41143 whole entry): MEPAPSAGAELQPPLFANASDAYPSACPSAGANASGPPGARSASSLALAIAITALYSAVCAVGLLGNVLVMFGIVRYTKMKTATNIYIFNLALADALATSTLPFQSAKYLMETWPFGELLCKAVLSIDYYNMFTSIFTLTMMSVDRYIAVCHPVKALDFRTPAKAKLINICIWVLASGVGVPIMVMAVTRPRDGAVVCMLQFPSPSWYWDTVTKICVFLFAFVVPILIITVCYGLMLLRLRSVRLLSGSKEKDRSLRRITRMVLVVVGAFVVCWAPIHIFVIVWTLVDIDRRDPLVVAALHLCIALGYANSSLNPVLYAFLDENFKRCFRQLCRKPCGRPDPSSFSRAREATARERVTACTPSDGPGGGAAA
T6 sequence (P41145 whole entry): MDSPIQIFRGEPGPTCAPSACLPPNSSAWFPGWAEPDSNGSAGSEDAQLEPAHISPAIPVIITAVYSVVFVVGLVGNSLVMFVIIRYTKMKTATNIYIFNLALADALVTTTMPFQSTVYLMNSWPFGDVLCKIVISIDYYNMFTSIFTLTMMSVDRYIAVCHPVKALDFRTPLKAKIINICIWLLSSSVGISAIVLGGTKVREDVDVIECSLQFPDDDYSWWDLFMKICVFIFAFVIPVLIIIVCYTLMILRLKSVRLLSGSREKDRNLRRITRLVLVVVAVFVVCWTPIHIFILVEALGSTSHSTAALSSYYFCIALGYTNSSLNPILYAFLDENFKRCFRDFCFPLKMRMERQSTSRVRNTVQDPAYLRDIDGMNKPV
T5 sequence (P32245 whole entry): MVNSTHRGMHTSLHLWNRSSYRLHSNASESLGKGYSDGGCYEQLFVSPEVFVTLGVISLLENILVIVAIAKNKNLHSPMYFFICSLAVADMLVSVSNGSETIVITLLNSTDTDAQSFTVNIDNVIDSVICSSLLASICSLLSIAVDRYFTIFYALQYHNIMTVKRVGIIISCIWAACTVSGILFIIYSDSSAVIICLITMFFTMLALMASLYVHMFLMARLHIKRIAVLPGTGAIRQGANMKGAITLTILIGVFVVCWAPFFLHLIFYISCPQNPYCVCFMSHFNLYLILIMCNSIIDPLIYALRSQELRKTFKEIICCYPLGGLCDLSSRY
T9 sequence (P41968 whole entry): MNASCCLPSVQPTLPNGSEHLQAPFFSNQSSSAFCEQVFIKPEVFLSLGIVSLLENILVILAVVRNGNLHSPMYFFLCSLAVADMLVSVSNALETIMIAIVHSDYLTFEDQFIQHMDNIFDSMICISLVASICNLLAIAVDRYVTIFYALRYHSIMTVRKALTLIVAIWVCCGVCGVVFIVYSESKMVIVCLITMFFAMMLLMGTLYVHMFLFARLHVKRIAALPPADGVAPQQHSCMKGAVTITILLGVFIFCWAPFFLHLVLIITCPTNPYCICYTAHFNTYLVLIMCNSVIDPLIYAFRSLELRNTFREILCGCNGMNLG

NCCCC(=O)NC1C(OCc2ccc(Cl)cc2)OC(COCc2ccccc2)C(O)C1OCc1ccccc1 (single isomer, unassigned) [compound 504]
A9: inhibition of radioligand binding, human neuropeptide Y (NPY-Y1) ([1]; [125I]-PYY): − (“−” indicates less than 50% inhibition at 10 μM)
A1: inhibition of radioligand binding, human δ-opioid (DOP) (Human δ-opioid (DOP); [3H]-Bremazocine): − (“−” indicates less than 50% inhibition at 10 μM)
A8: inhibition of radioligand binding, human neurokinin (NK1) (Human neurokinin (NK1); [125I]-Substance P): + (“+” indicates greater than 50% inhibition at 10 μM)
A6: inhibition of radioligand binding, human melanin-concentrating hormone (MCH1) ([2]; [125I]-S36057): − (“−” indicates less than 50% inhibition at 10 μM)
A4: inhibition of radioligand binding, human melanocortin (MC4) (Human Melanocortin (MC4); [125I]-NDP-αMSH): − (“−” indicates less than 50% inhibition at 10 μM)
A2: inhibition of radioligand binding, human κ-opioid (KOP) (Human κ-Opioid (KOP); [3H]-Diprenorphine): − (“−” indicates less than 50% inhibition at 10 μM)
A7: inhibition of radioligand binding, human μ-opioid (MOP) (Human μ-opioid (MOP); [3H]-Naloxone): − (“−” indicates less than 50% inhibition at 10 μM)
A11: inhibition of radioligand binding, mouse urotensin (mUR2) (Mouse urotensin (mUR2); [125I]-Urotensin II): − (“−” indicates less than 50% inhibition at 10 μM)
A3: inhibition of radioligand binding, human melanocortin (MC3) (Human Melanocortin (MC3); [125I]-NDP-αMSH): − (“−” indicates less than 50% inhibition at 10 μM)
A5: inhibition of radioligand binding, human melanocortin (MC5) (Human melanocortin (MC5); [125I]-NDP-αMSH, 10 µM): − (“−” indicates less than 50% inhibition at 10 μM)
A10: inhibition of radioligand binding, human opioid (ORL1) (Human opioid (ORL1); [125I]-Nociceptin, 10 µM): + (“+” indicates greater than 50% inhibition at 10 μM)

COC[C@H]1OC(OCc2ccccc2)[C@H](NC(=O)CCCN)[C@@H](OCc2cccc(O)c2)[C@@H]1O (stereo partly shown) [compound 136]
A9 radioligand binding, percentage inhibition ([1]; [125I]-PYY): − (“−” indicates less than 50% inhibition at 10 μM)
A1 radioligand binding, percentage inhibition (Human δ-opioid (DOP); [3H]-Bremazocine): − (“−” indicates less than 50% inhibition at 10 μM)
A8 radioligand binding, percentage inhibition (Human neurokinin (NK1); [125I]-Substance P): + (“+” indicates greater than 50% inhibition at 10 μM)
A6 radioligand binding, percentage inhibition ([2]; [125I]-S36057): − (“−” indicates less than 50% inhibition at 10 μM)
A4 radioligand binding, percentage inhibition (Human Melanocortin (MC4); [125I]-NDP-αMSH): − (“−” indicates less than 50% inhibition at 10 μM)
A2 radioligand binding, percentage inhibition (Human κ-Opioid (KOP); [3H]-Diprenorphine): − (“−” indicates less than 50% inhibition at 10 μM)
A7 radioligand binding, percentage inhibition (Human μ-opioid (MOP); [3H]-Naloxone): − (“−” indicates less than 50% inhibition at 10 μM)
A11 radioligand binding, percentage inhibition (Mouse urotensin (mUR2); [125I]-Urotensin II): − (“−” indicates less than 50% inhibition at 10 μM)
A3 radioligand binding, percentage inhibition (Human Melanocortin (MC3); [125I]-NDP-αMSH): − (“−” indicates less than 50% inhibition at 10 μM)
A5 radioligand binding, percentage inhibition (Human melanocortin (MC5); [125I]-NDP-αMSH): − (“−” indicates less than 50% inhibition at 10 μM)
A10 radioligand binding, percentage inhibition (Human opioid (ORL1); [125I]-Nociceptin): − (“−” indicates less than 50% inhibition at 10 μM)

COC[C@H]1OC(OCc2ccc3ccccc3c2)[C@H](NC(=O)CNC(=N)N)[C@@H](OCc2ccc(Cl)cc2)[C@@H]1O (stereo partly shown) [compound 22]
A9 radioligand binding inhibition ([1]; human NPY-Y1 membranes): − (“−” indicates less than 50% inhibition at 10 μM)
A1 radioligand binding inhibition (Human δ-opioid (DOP); human δ-opioid (DOP) membranes): − (“−” indicates less than 50% inhibition at 10 μM)
A8 radioligand binding inhibition (Human neurokinin (NK1); human neurokinin NK1 membranes): − (“−” indicates less than 50% inhibition at 10 μM)
A6 radioligand binding inhibition ([2]; human MCH1 membranes): − (“−” indicates less than 50% inhibition at 10 μM)
A4 radioligand binding inhibition (Human Melanocortin (MC4); human melanocortin MC4 membranes): − (“−” indicates less than 50% inhibition at 10 μM)
A2 radioligand binding inhibition (Human κ-Opioid (KOP); human κ-opioid (KOP) membranes): − (“−” indicates less than 50% inhibition at 10 μM)
A7 radioligand binding inhibition (Human μ-opioid (MOP); human μ-opioid (MOP) membranes): − (“−” indicates less than 50% inhibition at 10 μM)
A11 radioligand binding inhibition (Mouse urotensin (mUR2); mouse urotensin mUR2 membranes): − (“−” indicates less than 50% inhibition at 10 μM)
A3 radioligand binding inhibition (Human Melanocortin (MC3); human melanocortin MC3 membranes): − (“−” indicates less than 50% inhibition at 10 μM)
A5 radioligand binding inhibition (Human melanocortin (MC5); human melanocortin MC5 membranes): + (“+” indicates greater than 50% inhibition at 10 μM)
A10 radioligand binding inhibition (Human opioid (ORL1); human ORL1 membranes): − (“−” indicates less than 50% inhibition at 10 μM)

COCC1OC(OCc2ccc3ccccc3c2)C(NC(=O)CCN)C(OCc2ccccc2)C1O (stereo not shown) [compound 231]
A9: inhibition of radioligand binding ([1]; [125I]-PYY, FlashPlate): − (“−” indicates less than 50% inhibition at 10 μM)
A1: inhibition of radioligand binding (Human δ-opioid (DOP); [3H]-Bremazocine, FlashPlate): − (“−” indicates less than 50% inhibition at 10 μM)
A8: inhibition of radioligand binding (Human neurokinin (NK1); [125I]-Substance P, filtration): + (“+” indicates greater than 50% inhibition at 10 μM)
A6: inhibition of radioligand binding ([2]; [125I]-S36057, FlashPlate): − (“−” indicates less than 50% inhibition at 10 μM)
A4: inhibition of radioligand binding (Human Melanocortin (MC4); [125I]-NDP-αMSH, FlashPlate): − (“−” indicates less than 50% inhibition at 10 μM)
A2: inhibition of radioligand binding (Human κ-Opioid (KOP); [3H]-Diprenorphine, filtration): − (“−” indicates less than 50% inhibition at 10 μM)
A7: inhibition of radioligand binding (Human μ-opioid (MOP); [3H]-Naloxone, FlashPlate): − (“−” indicates less than 50% inhibition at 10 μM)
A11: inhibition of radioligand binding (Mouse urotensin (mUR2); [125I]-Urotensin II, FlashPlate): − (“−” indicates less than 50% inhibition at 10 μM)
A3: inhibition of radioligand binding (Human Melanocortin (MC3); [125I]-NDP-αMSH, FlashPlate): − (“−” indicates less than 50% inhibition at 10 μM)
A5: inhibition of radioligand binding (Human melanocortin (MC5); [125I]-NDP-αMSH, FlashPlate): − (“−” indicates less than 50% inhibition at 10 μM)
A10: inhibition of radioligand binding (Human opioid (ORL1); [125I]-Nociceptin, FlashPlate): − (“−” indicates less than 50% inhibition at 10 μM)

NCCC(=O)NC1C(OCc2ccccc2)OC(COCc2ccc3ccccc3c2)C(O)C1OCc1ccccc1 (stereo not shown) [compound 369]
A9: inhibition of radioligand binding, human neuropeptide Y (NPY-Y1) ([1]; [125I]-PYY): − (“−” indicates less than 50% inhibition at 10 μM)
A1: inhibition of radioligand binding, human δ-opioid (DOP) (Human δ-opioid (DOP); [3H]-Bremazocine): − (“−” indicates less than 50% inhibition at 10 μM)
A8: inhibition of radioligand binding, human neurokinin (NK1) (Human neurokinin (NK1); [125I]-Substance P): + (“+” indicates greater than 50% inhibition at 10 μM)
A6: inhibition of radioligand binding, human melanin-concentrating hormone (MCH1) ([2]; [125I]-S36057): − (“−” indicates less than 50% inhibition at 10 μM)
A4: inhibition of radioligand binding, human melanocortin (MC4) (Human Melanocortin (MC4); [125I]-NDP-αMSH): + (“+” indicates greater than 50% inhibition at 10 μM)
A2: inhibition of radioligand binding, human κ-opioid (KOP) (Human κ-Opioid (KOP); [3H]-Diprenorphine): − (“−” indicates less than 50% inhibition at 10 μM)
A7: inhibition of radioligand binding, human μ-opioid (MOP) (Human μ-opioid (MOP); [3H]-Naloxone): − (“−” indicates less than 50% inhibition at 10 μM)
A11: inhibition of radioligand binding, mouse urotensin (mUR2) (Mouse urotensin (mUR2); [125I]-Urotensin II): − (“−” indicates less than 50% inhibition at 10 μM)
A3: inhibition of radioligand binding, human melanocortin (MC3) (Human Melanocortin (MC3); [125I]-NDP-αMSH): − (“−” indicates less than 50% inhibition at 10 μM)
A5: inhibition of radioligand binding, human melanocortin (MC5) (Human melanocortin (MC5); [125I]-NDP-αMSH): − (“−” indicates less than 50% inhibition at 10 μM)
A10: inhibition of radioligand binding, human opioid (ORL1) (Human opioid (ORL1); [125I]-Nociceptin): − (“−” indicates less than 50% inhibition at 10 μM)
